# In US20040087514A1, “Nutritional compositions” (priority 2002, published 2004):
# Marks after values point to notes of the source that are not given here.
# Experiments:
# Type in all cases: in vivo, human
# GLP-1 secretion = experiment: Clinical study, GLP-1 levels after ingestion of load (Example 1); settings: for GLP-1 (A): mean
# Protocol: (§1) A randomized, placebo-controlled trial was performed in 20 subjects (12 women, 8 men) [body mass index (in kg/m^2): 23]. Subjects received 5 times at least one week apart- a load consisting of galactose (50 g) alone or in combination with guar gum (2,5 g), solved in 250 ml water, or 250 ml water without any additives. Prior to each treatment a catheter was placed in an anticubital vein. Eating behavior and dietary restraint status of subjects were investigated using a validated Dutch translation of the Three Factor Eating Questionnaire (TFEQ). The study was approved by the Medical Ethics Committee of the Maastricht University.
# [1] = Clinical study, plasma glucose, galactose, free fatty acids, glycerol (Example 1); settings: data not shown
# Protocol: as §1
# [2] = tested on: healthy, normal-weight subjects; experiment: Clinical study, perception of satiety, Visual Analog Scale (Example 1); settings: mean from 100 mm Visual Analog Scale
# Protocol: as §1
# insulin release = experiment: Clinical study, insulin levels after ingestion of load (Example 1); settings: mean
# Protocol: as §1
# [3] = tested on: C-peptide (indicator of insulin secretion); experiment: Clinical study, C-peptide levels after ingestion of load (Example 1); settings: mean
# Protocol: as §1
smiles,measurement,setting,value
"O=C[C@H](O)[C@@H](O)[C@@H](O)[C@H](O)CO [Galactose, galactose]",GLP-1 (A),"GLP-1 secretion; 0 minutes, 50 g galactose (+2,5 g guar gum) in 250 ml water",3.8 pmol/L
same,GLP-1 release compared to water,"GLP-1 secretion; 30 minutes after ingestion of the load, p<0.05",significantly elevated
same,GLP-1 (A),GLP-1 secretion; 30 minutes after ingestion,4.6^# pmol/l
same,GLP-1 (A),GLP-1 secretion; 60 minutes after ingestion,3.5 pmol/L
same,GLP-1 (A),GLP-1 secretion; 90 minutes after ingestion,3.2 pmol/L
same,GLP-1 (A),GLP-1 secretion; 120 minutes after ingestion,3.7 pmol/L
same,GLP-1 (A),GLP-1 secretion; 240 minutes after ingestion,3.7 pmol/L
same,galactose levels,[1],increased galactose levels significantly
same,Satiety (B),[2]; 0 minutes,27^ mm
same,Satiety (B),[2]; 30 minutes,34# mm
same,Satiety (B),[2]; 60 minutes,33# mm
same,Satiety (B),[2]; 90 minutes,25# mm
same,Satiety (B),[2]; 120 minutes,31# mm
same,Satiety (B),[2]; 240 minutes,20^ mm
same,Insulin (B),insulin release; 0 minutes,7.3 mU/l
same,Insulin (B),insulin release; 30 minutes after ingestion,21# mU/l
same,Insulin (B),insulin release; 60 minutes after ingestion,13 mU/l
same,Insulin (B),insulin release; 90 minutes after ingestion,12 mU/l
same,Insulin (B),insulin release; 120 minutes after ingestion,9.9 mU/l
same,Insulin (B),insulin release; 240 minutes after ingestion,4.7 mU/l
same,C-peptide (A),[3]; 0 minutes,0.61 nmol/L
same,C-peptide (A),[3]; 30 minutes after ingestion,1.03^# nmol/l
same,C-peptide (A),[3]; 60 minutes after ingestion,0.89^# nmol/l
same,C-peptide (A),[3]; 120 minutes after ingestion,0.88 nmol/L
